# Measured values: patent US8277815B2, “Pharmaceutical composition comprising an antigen” (Intercell AG, priority 1999, dated 2012)
# Tests used:
# [1] = tested on: tick-born encephalitis (TBE) virus; details: in vivo; cited from earlier work
# antigen specific T cells = test: IFN-γ-ELISPOT of lymph node lymphocytes 10 days after subcutaneous vaccination; type: in vivo, C57BL/6 mice; details: lymph node lymphocytes of TRP-2 vaccinated mice; negative control with the same MHC restriction
# Description: Experimental Groups (5 Mice Each) • 1) TRP-2 peptide • 2) TRP-2 peptide+HGH • 3) TRP-2 peptide+pR 60 • 4) TRP-2 peptide+pR 60+HGH
# On day 0 mice were injected subcutaneously with a total volume of 100 μl containing the above mentioned compounds. Animals were sacrificed 10 days after injection of the vaccine and mesenteric and inguinal lymph nodes harvested. Results are illustrated in FIG. 1.
# Lymphocytes were prepared from lymph nodes as follows: cells were passed through a 70 μm sieve and washed twice with DMEM medium (GIBCO BRL) containing 2.5% fetal calf serum (FCS; SIGMA chemicals). Cells were adjusted to 10^7 cells/ml in complete medium (DMEM+10% FCS). IFN-γ-ELISPOT assays were carried out in triplicate as described (Miyahira et al., 1995). This method is a widely used procedure allowing the quantification of antigen-specific T cells. Lymphocytes were restimulated with TRP-2 peptide or with an ovalbumin-derived peptide (SIINFEKL) with the same MHC restriction serving as negative control.
# Spots representing single T cells specific for the peptide used for re-stimulation (and immunization) were counted. The number of background spots observed with cells incubated without peptide(s) was subtracted from all samples.
substance,measurement,setting,value
"HGH: Human growth hormone, pituitary-derived factor; SAIZEN, Laboratoires Serono used in Example 1",vaccine efficacy / protection of animals,[1],potentiated vaccine efficacy and led to the protection of animals after only one injection of the vaccine
SIINFEKL [ovalbumine derived peptide],spots on restimulation with the ovalbumin-derived control peptide (IFN-γ-ELISPOT),antigen specific T cells,no spots detected
